Results on six compounds are retold here after patent publication US20240001155A1, “REVERSAL OF CELLULAR SENESCENCE BY TREATMENT WITH LOW FREQUENCY ULTRASOUND” (Mechanobiologics, Inc., priority 2022, published 2024).

In data set [1] the test system is platelet. The conditions noted are these: risk of causing thrombocytopenia; cited from earlier work.
Data set [2] has as its system Vero cells. Kind of data set: Proliferation (growth rate, fold change in cell number) of cells after senescence induction. It counts as cell-based, African monkey. The conditions noted are these: senescence induced by the agent; 48 hours of incubation; control cells approximately eight-fold change; FIG. 1B. As to the method:
(§1) Vero cells were treated with the stressors including 200 μM H2O2, 4 mM of sodium butyrate (SB) or 25 μM of bleomycin sulphate (BS) and incubated for 36-48 hours. After washing with PBS and then replacing growth medium with fresh medium, cells were incubated for four days to confirm the growth arrest of senescent cells. […] Four criteria were used to determine if cells were senescent; (1) cell cycle arrest by determining the growth rate, (2) Increase in cell spread area, (3) development of senescence associated secretory phonotype (SASP) in culture medium, and (4) beta-gal staining. Images of cells were captured with an Evos microscope at 10× magnification after treatment and 48 hours post treatment.
To measure growth by the increase in cell number, 15 random images were captured, then the average number of cells were determined, which was divided by the area of one frame to get the cell density (cells/cm^2). Then this seeding density was multiplied by the total area of the dish or well to obtain the total number of cells after ultrasound (US) treatment and after 48 hours of incubation. The total number of cells at 48 hours was divided by the total number of cells just after the treatment to determine the growth rate. A ratio was one would be an indication of no growth.

In data set [3] the test system is Vero cells. Kind of data set: Cell spread area after senescence induction. Type of data set: cell-based, African monkey. The conditions noted are these: senescence induced by the agent, compared to normal control cells; FIG. 1C. As to the method:
as §1
Senescence was detected by the beta-galactosidase senescence staining kit as per manufacturer's protocol. Briefly, sub confluent senescent cells were stained by the SA-beta galactosidase (β-gal) staining solution and incubated overnight at 37° C. The β-gal-stained cells appeared blue and were senescent cells. The percentages of β-gal positive cells were determined by counting the number of blue cells and dividing by the total number of cells. Cell spread area was determined by capturing the mages of cells with a 10× objective using an Evos microscope. Then, ImageJ software was used to calculate spread area by manually encircling the cell periphery of each cell. A minimum of 150 cells was used for the analysis. To determine the SASP activity, the senescent cells were cultured for one to three days and then supernatant was collected from each dish. This supernatant was used to culture normal cells. Development of a senescence phenotype by the normal cells in supernatant medium confirmed that senescent cells were secreting SASP.

In data set [4] the test system is Sirtuin1. Kind of data set: LFU rejuvenation of senescent cells in presence of Sirtuin1 inhibitor. Type of data set: cell-based, Human. The following applies: HFF cells with ultrasound treatment in presence of drug; FIG. 7. Here is the method: Passage 15-24 HFF cells were treated with ultrasound at the optimized frequency, power and duty cycle. Cell proliferation was determined by counting the number of cells at the time of seeding and 48 hours after ultrasound (US) treatment. […] In the case of P24 HFF cells, they were treated with ultrasound and incubated for 96 hours prior to trypsinization, reseeding and incubation for 48 hours. Proliferation and morphology were measured after 48 hours of incubation.
FIG. 7A is a schematic of resveratrol and EX-527 treatment, followed by ultrasound treatment and medium change. FIG. 7B is a bar graph comparing the fold change in cell number of untreated control HFF cells in presence of EX-527.
FIG. 7C is a bar graph comparing the fold change in cell number of treated P19 cells in the presence of drug. FIG. 7D is a set of images comparing the immunofluorescence staining of Sirt1 in untreated and US treated HFF cells. FIG. 7E is bar graph comparing the sirt1 expression by intensity ratio of sirt1 and DAPI. Results are shown as mean±S.D. **p value <0.02 and ‘non-significant’ p value >0.05.

With `CC1(C)CCC(c2ccc(Cl)cc2)=C(CN2CCN(c3ccc(C(=O)NS(=O)(=O)c4ccc(N[C@H](CCN5CCOCC5)CSc5ccccc5)c(S(=O)(=O)C(F)(F)F)c4)cc3)CC2)C1` [ABT263], the toxicity result in data set [1] is on record as “dose-limiting platelet toxicity”.
Regarding `COc1cccc2c1C(=O)c1c(O)c3c(c(O)c1C2=O)C[C@@](O)(C(=O)CO)C[C@@H]3O[C@H]1C[C@H](N)[C@H](O)[C@H](C)O1` [Doxorubicin], the “proliferation (fold change)” value in data set [2] is listed as “non proliferative”. For the same compound, the spread area result in data set [3] was “enlarged”.
Regarding `NC(=O)C1CCCc2c1[nH]c1ccc(Cl)cc21` (stereo not shown) [EX-527], the “LFU rejuvenation of senescent cells” value in data set [4] is “blocked”.
For `OO` [H2O2, hydrogen peroxide], the “proliferation (fold change)” value in data set [2] was “non proliferative”. The spread area result in data set [3] was “enlarged”.
On to `CCCC(=O)[O-].[Na+]` [sodium butyrate], for which the “proliferation (fold change)” value in data set [2] is “non proliferative”. Besides, in data set [3], the spread area entry is reported as “enlarged”.
Regarding Bleomycin Sulphate, the “proliferation (fold change)” value in data set [2] was “non proliferative”. Moreover, in data set [3], the spread area entry is recorded as “enlarged”.
